Source: patent US20160339022A1, “TREATMENT OF NEUROBLASTOMA WITH HISTONE DEACETYLASE INHIBITORS” (Acetylon Pharmaceuticals Inc., priority 2015, published 2016)

Experiments:
[1] = tested on: SK-N-BE(2) cells; assay: Cell viability (Promega CellTiter Glo assay); format: cell-based
Method: (§1) Cells were cultured for 48 hours at the indicated concentration of drug, and then cell viability was measured by Promega CellTiter Glo assay and caspase activity was measured by Promega Caspase3/7 Glo assay. […] Anti-tumor activity is evident at 3 μM of treatment.

[2] = tested on: neuroblastoma cells; assay: Cell cycle analysis (Click-iT EdU and FxCycle PI/RNase staining); format: cell-based; conditions: 7 days
Method: Cells were cultured for 7 days with the indicated treatments and then stained with the Invitrogen Click-iT EdU kit and the Invitrogen FxCycle […] kits to assess frequency of cells in each stage of the cell cycle. […] The effect is enhanced by Compound B in a dose dependent manner.
In combination with ATRA, the effect on p21 is enhanced at concentrations that induce gene expression changes consistent with differentiation. At 7 days of treatment, combination effects are observed on the cell cycle, with a decreasing frequency of s-phase cells and an increasing sub-G1 population (FIG. 6B). […] EDU is increased in cells in s-phase while PI intensity indicates relative levels of DNA. Using these metrics, we illustrate the frequency of cells in the indicated states of the cell cycle.

[3] = tested on: neuroblastoma cells; assay: Morphology changes / dendrite outgrowth by inverted microscope; format: cell-based; conditions: 3, 5 and 7 days
Method: Cells were cultured for 3, 5, and 7 days with the indicated treatments. Images were captured on an inverted microscope.

[4] = tested on: SK-N-BE(2) cells; assay: Microarray gene expression and gene set enrichment analysis; format: cell-based, Homo sapiens; conditions: 3 μM Compound B, 1 μM ATRA or combination, microarray 48 hr, fold relative to the DMSO control group
Method: Gene expression from cells treated with ATRA single agent and combination of ATRA and HDAC1/2i were assessed at 2 hrs and 48 hrs of treatment (FIG. 12A). […] A function analysis of the data using the Ingenuity IPA platform was performed by Qiagen; overlap is observed in the top hits between treatment groups.
Genes that statistically increase over 2-fold relative to the DMSO control were mapped on a Venn diagram (FIG. 12B).
Neuroblastoma cell line SK-N-BE(2) cells were treated with 3 μM Compound B, 1 μM ATRA, or a combination of both at 37° C. over 2 hours (FIG. 12A) or 48 hours (FIG. 12B) and compared to the solvent (DMSO) control.

[5] = tested on: retinoic acid receptor (RAR); assay: Retinoic acid receptor ChIP-seq; format: cell-based; conditions: 3 μM Compound B, 48 hours
Description: Retinoic acid receptor active binding sites defined in any individual treatment group by ChIP-seq at 48 hrs after treatment were stacked (y-axis) and aligned to the center of the binding peak (x-axis) (FIG. 13). […] Many of the genes found near region 1 binding sites are involved in regulation of retinoid signaling and are transcription factors that drive differentiation (Table 10).
Regions 1-7 of FIG. 13 are defined relative to DMSO: 1, [Combo] Increased; 2, [ATRA] Increased; 3, [ATRA] [Combo] Increased; 4, [Combo] [ATRA] [Compound B] Increased; 5, [Combo] [ATRA] Decreased; 6, [Compound B] Decreased; and 7, [Compound B] [Combo] [ATRA] Decreased.
Neuroblastoma cell line SK-N-BE(2) cells were treated with 3 μM Compound B, 1 μM ATRA, or a combination of both at 37° C. over 48 hours and compared to the solvent (DMSO) control. Antibodies to pan-retinoic acid receptor were used to pull down DNA associated with the receptor binding and sequenced. Lists of binding regions were mapped to the chromosome and “associated” with a given gene if the binding region was located within 10,000 bp up- or down-stream of the gene in question. Binding regions were represented as a heatmap where the sites were stacked on the y-axis across treatments, the “0” mark on the x-axis is the center of the binding peak and the intensity of signal indicated by color. The bracketed regions are areas of statistical significance relative to the DMSO control as indicated on the plot.
Table 12 lists the genes returned when the following conditions are met: 1) combo peak height >4 fold relative to the DMSO control group, and 2) combo expression >4 fold relative to the DMSO control group.

[6] = tested on: AKT and c-RAF; assay: Levels of AKT and c-RAF; format: cell-based; conditions: SK-N-BE2 cells; 3 days in culture
Method: The levels of AKT and c-RAF were assessed following treatment (SK-N-BE2 cells; 3 days in culture) with DMSO (control), Compound B alone, ATRA alone, and Compound B in combination with ATRA. Activated AKT is increased by ATRA and reduced in the combination setting with Compound B. Compound B as a single agent, and in combination with ATRA, decreases cRAF phosphorylation at residue Ser259.

[7] = tested on: SK-N-BE2 cells; assay: Levels of proteins related to cell-cycle progression; format: cell-based; conditions: 3 days in culture
Method: The levels of proteins related to cell-cycle progression were assessed following treatment (SK-N-BE2 cells; 3 days in culture) with DMSO (control), Compound B alone, ATRA alone, and Compound B in combination with ATRA. p21 is increased by ATRA and enhanced by Compound B. Cyclin D1 is decreased in the combination setting relative to ATRA as a single agent. CDK2 and CDK4 are decreased in the combination setting with Compound B and ATRA.

[8] = tested on: neuroblastoma cells; conditions: MTS assay, FIGS. 27 and 28
Method: Viable cells were measured in an MTS assay and the combination index (CI) was calculated using the Chou-Talaay method.

[9] = tested on: SK-N-BE(2) cells; assay: Caspase activity (Promega Caspase3/7 Glo assay); format: cell-based; conditions: 1 μM, 48 hours
Method: as §1

[10] = tested on: neuroblastoma cells; assay: Neuroblastoma proliferation, manual cell counts over 7 days; format: cell-based; conditions: 0.75 μM and 2 μM, counted at days 3, 5 and 7
Method: Cells were cultured over a 7 day period and manually counted at days 3, 5, and 7.

[11] = target: HDAC1 (Homo sapiens, UniProt Q13547); assay: Biochemical activity of isoform-selective HDAC inhibitors, HDAC1; conditions: biochemical assay
[12] = target: HDAC2 (Homo sapiens, UniProt Q92769); assay: Biochemical activity of isoform-selective HDAC inhibitors, HDAC2; conditions: biochemical assay
[13] = tested on: neuroblastoma cells; assay: Long term growth assay (15, 20, 25 days, Crystal Violet); format: cell-based; conditions: 1 μM of exposure, single agent; FIG. 11
Method: Cells were cultured for 15, 20 or 25 days with the indicated treatments. Cells were imaged on an inverted microscope at days 15 and 20. On day 25, the cells were stained with Crystal Violet dye and imaged by cell phone camera Importantly, the combination of ATRA and Compound B suppressed the growth of ATRA-resistant colonies.
Cells were cultured for 15, 20 or 25 days with the indicated treatments. Cells were imaged on an inverted microscope at days 15 and 20. On day 25, the cells were stained with Crystal Violet dye and imaged.
Cells were cultured for 15, 20 or 25 days with the indicated treatments. Cells were imaged on an inverted microscope at days 15 and 20. On day 25, the cells were stained with Crystal Violet dye and imaged. It was observed that the combination activity is mediated by HDAC1/2i.
Neuroblastoma cells were treated with Compound B or the HDAC3-selective inhibitor Compound C in a long term growth assay.

[14] = tested on: IMR-32 tumors; assay: IMR-32 neuroblastoma tumor growth in NUDE mice; format: in vivo; conditions: IMR-32 tumors in NUDE mice, orally once daily, 5/2 on/off schedule
Method: IMR-32 tumors were implanted in NUDE mice and Compound E and retinoic acid was administered orally once daily at the indicated doses on a 5/2 on/off schedule.

[15] = SK-N-BE(2) cells, 1 μM ATRA or combination, fold relative to the DMSO control group

Sequence of HDAC2 (Q92769 whole entry, canonical isoform): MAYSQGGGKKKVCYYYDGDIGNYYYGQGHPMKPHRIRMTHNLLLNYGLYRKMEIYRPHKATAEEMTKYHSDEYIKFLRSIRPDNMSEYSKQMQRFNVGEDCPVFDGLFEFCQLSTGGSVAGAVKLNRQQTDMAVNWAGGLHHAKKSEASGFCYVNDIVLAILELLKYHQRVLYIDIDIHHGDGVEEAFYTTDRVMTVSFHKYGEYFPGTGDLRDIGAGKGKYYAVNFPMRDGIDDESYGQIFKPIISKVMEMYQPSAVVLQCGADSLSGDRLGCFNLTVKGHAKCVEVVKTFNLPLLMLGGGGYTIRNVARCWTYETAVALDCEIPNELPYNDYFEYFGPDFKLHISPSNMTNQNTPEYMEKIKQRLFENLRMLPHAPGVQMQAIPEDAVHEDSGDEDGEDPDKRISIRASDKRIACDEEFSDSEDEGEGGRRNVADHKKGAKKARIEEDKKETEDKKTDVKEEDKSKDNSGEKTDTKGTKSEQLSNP
Sequence of HDAC1 (Q13547 whole entry, canonical isoform): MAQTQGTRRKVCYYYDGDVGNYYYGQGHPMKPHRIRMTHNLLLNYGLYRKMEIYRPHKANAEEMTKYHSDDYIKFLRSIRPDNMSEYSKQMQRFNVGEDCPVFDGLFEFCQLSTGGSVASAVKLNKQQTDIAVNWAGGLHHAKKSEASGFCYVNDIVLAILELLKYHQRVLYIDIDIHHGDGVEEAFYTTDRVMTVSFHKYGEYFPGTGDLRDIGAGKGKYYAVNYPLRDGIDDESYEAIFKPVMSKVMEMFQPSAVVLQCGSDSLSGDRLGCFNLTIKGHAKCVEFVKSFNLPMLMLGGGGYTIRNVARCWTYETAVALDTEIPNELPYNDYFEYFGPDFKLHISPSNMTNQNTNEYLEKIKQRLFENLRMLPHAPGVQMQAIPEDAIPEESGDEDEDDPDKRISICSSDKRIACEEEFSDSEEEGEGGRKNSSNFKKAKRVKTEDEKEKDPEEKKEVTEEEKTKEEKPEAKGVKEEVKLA

With `CC1=C(/C=C/C(C)=C/C=C/C(C)=C/C(=O)O)C(C)(C)CCC1` [ATRA, all-trans-retinoic acid, reference compound] the “effect of added ATRA on HDAC1/2i mediated toxicity” value ([1]; addition of 1 μM or 3 μM of ATRA to Compound B, FIG. 2A) was “little effect”, the “cell cycle stage frequency, single agent” value [2] was “reduces s-phase frequency and increases the sub-G1 population” and the “morphology / dendrite outgrowth” value [3] was “caused the outgrowth of dendrites over time”. For the same molecule, the “Gene Expression Change, ACSL3” value [4] was 1.68, the “Gene Expression Change, ATP7A” value [4] was 4.30 and the “Gene Expression Change, CDKN1A” value [4] was 1.25. For the same molecule, the “Gene Expression Change, CRABP2” value [4] was 12.15, the “Gene Expression Change, CTSH” value [4] was 2.40 and the “Gene Expression Change, CYP26A1” value [4] was 7.84. For the same molecule, the “Gene Expression Change, CYP26B1” value [4] was 116.67, the “Gene Expression Change, DHRS3” value [4] was 24.14 and the “Gene Expression Change, DUSP6” value [4] was 8.59. For the same molecule, the “Gene Expression Change, ETS1” value [4] was 3.50, the “Gene Expression Change, HSPA5” value [4] was 1.48 and the “Gene Expression Change, IER3” value [4] was 3.75. For the same molecule, the “Gene Expression Change, NFKBIZ” value [4] was 2.85, the “Gene Expression Change, PCDH18” value [4] was 3.98 and the “Gene Expression Change, PTGER2” value [4] was 2.48. The “Gene Expression Change, RARB” value [4] was 3.91, the “Gene Expression Change, RET” value [4] was 10.78 and the “RAR Binding (Peak Height), ACSL3” value [5, 15] was 1.00. The “RAR Binding (Peak Height), ATP7A” value [5, 15] was 4.60, the “RAR Binding (Peak Height), CDKN1A” value [5, 15] was 4.75 and the “RAR Binding (Peak Height), CRABP2” value [5, 15] was 3.15. For the same molecule, the “RAR Binding (Peak Height), CTSH” value [5, 15] was 5.42, the “RAR Binding (Peak Height), CYP26A1” value [5, 15] was 7.00 and the “RAR Binding (Peak Height), CYP26B1” value [5, 15] was 11.50. The “RAR Binding (Peak Height), DHRS3” value [5, 15] was 7.50, the “RAR Binding (Peak Height), DUSP6” value [5, 15] was 4.00 and the “RAR Binding (Peak Height), ETS1” value [5, 15] was 3.99. The “RAR Binding (Peak Height), HSPA5” value [5, 15] was 2.00, the “RAR Binding (Peak Height), IER3” value [5, 15] was 6.83 and the “RAR Binding (Peak Height), NFKBIZ” value [5, 15] was 4.00. The “RAR Binding (Peak Height), PCDH18” value [5, 15] was 3.50, the “RAR Binding (Peak Height), PTGER2” value [5, 15] was 2.13 and the “RAR Binding (Peak Height), RARB” value [5, 15] was 2.20. The “RAR Binding (Peak Height), RET” value [5, 15] was 8.86, the “RAR binding to chromatin” value ([5]; SK-N-BE(2), 1 μM ATRA, vs DMSO) was “increased RAR binding” and the “activated AKT” value [6] was “increased”. The p21 level [7] was “increased” and the “cytotoxic effect on neuroblastoma cells as a single agent” value [8] was “has a cytotoxic effect”.
With `O=C(CCCCCCNC(=O)c1cnc(N(c2ccccc2)c2ccccc2Cl)nc1)NO` [Compound A, 2-((2-chlorophenyl)(phenyl)amino)-N-(7-(hydroxyamino)-7-oxoheptyl)pyrimidine-5-carboxamide] the cell death ([1]; 1 μM, 48 hours) was “Minimal”, the anti-tumor activity ([1]; 3 μM, 48 hours) was “evident” and the “caspase 3/7 induction” value [9] was “Minimal”. The “proliferation, single agent” value [10] was “can suppress proliferation similar to ATRA” and the “cytotoxic effect on neuroblastoma cells as a single agent” value [8] was “has a cytotoxic effect”.
For `Nc1cc(F)ccc1NC(=O)c1cnc2c(C3CC3)c(N3CCNCC3)ccc2c1` [Compound C, N-(2-amino-4-fluorophenyl)-8-cyclopropyl-7-(piperazin-1-yl)quinoline-3-carboxamide], the IC50 [11] was 2000 nM, the IC50 [12] was 619 nM and the “neuroblastoma cell growth in long term growth assay” value [13] was “required higher concentrations to mediate a similar effect”.
For `Nc1ccc(-c2cccs2)cc1NC(=O)c1ccc2nc(N3CCNCC3)ccc2c1` [Compound E], the tumor growth [14] was “dose-dependent trend toward reduced tumor growth”.
